Assay results as given in BigSolDB 2.1.

CCCCS(=O)(=O)N[C@@H](Cc1ccc(OCCCCC2CCNCC2)cc1)C(=O)O
solubility (mole fraction)
Details	278.15 K	283.15 K	288.15 K	293.15 K	298.15 K	303.15 K	308.15 K	313.15 K	318.15 K	323.15 K
in ethanol	0.000129	0.000156	0.000183	0.000216	0.00025	0.000288	0.000329	0.000373	0.000427	0.00049
in ethylene glycol	4.7e-05	5.7e-05	6.77e-05	8.02e-05	9.46e-05	0.000109	0.000125	0.000142	0.00016	0.000181
in isopropanol	7.48e-05	9.32e-05	0.000108	0.00013	0.000153	0.000176	0.0002	0.00023	0.000265	0.000301
in methanol	0.000306	0.000375	0.000443	0.00052	0.000617	0.00071	0.000836	0.000957	0.0011	0.00125
in water	9.32e-07	1.1e-06	1.32e-06	1.55e-06	1.83e-06	2.08e-06	2.42e-06	2.75e-06	3.14e-06	3.59e-06
